The text below walks through data of patent US20090226408A1, “ANTI-FATIGUE COMPOSITION” (KANEKA CORPORATION, priority 2005, published 2009).

For this test, the system named is Sprague-Dawley male rats. Put plainly: Treadmill test using young rat (maximum running time). In kind it is in vivo. The note with it: reduced coenzyme Q10 100 mg/kg, lipoic acid 30 mg/kg; for extension of the maximum running time (after the sample administration relative to before the administration), Average: Sprague-Dawley male rats 7 to 10 week old, oral in 0.5% CMC-Na, before vs three hours after administration; for extension of the maximum running time, significance: single agents: before vs after administration, combination: compared to control group, oral, three hours after administration. On the procedure:
Using Sprague-Dawley male rats (7 to 10 week old, n=20), anti-fatigue effects brought about by reduced coenzyme Q10 alone (about 2% of oxidized coenzyme Q10 included), lipoic acid alone, and combination use of reduced coenzyme Q10 and lipoic acid were evaluated with a treadmill. In the test, rats were run at a speed of 10 m/min using a treadmill apparatus (model NK-73-4 made by Natume Seisakusho Co., Ltd.), and the speed was increased stepwise, by 5 m/min every 3 min, and the time when the rats became unable to run (maximum running time) was measured.
As substances to be tested, 0.5% sodium carboxymethylcellulose (CMC-Na) aqueous solutions of reduced coenzyme Q10 (about 2% oxidized coenzyme Q10 included) or lipoic acid (α-lipoic acid (manufactured by Tokyo Chemical Industry Co., Ltd.)) were each prepared and the solutions were orally administered to rats at a dose of 100 mg/kg for reduced coenzyme Q10 or at a dose of 30 mg/kg for lipoic acid. Rats were divided into four groups of a solvent administered group, reduced coenzyme Q10 only administered group, lipoic acid only administered group, and a reduced coenzyme Q10 and lipoic acid combined group (reduced coenzyme Q10 and lipoic acid were administered almost simultaneously). The maximum running time was measured before and three hours after the administration and an extension of the maximum running time (after the sample administration relative to before the administration) was calculated. A 0.5% CMC-Na aqueous solution was administered to the control group.

For the compound `O=C(O)CCCCC1CCSS1` (stereo not shown) [Lipoic acid, 1,2-dithioran-3-pentanoic acid], the “extension of the maximum running time (after the sample administration relative to before the administration), Average” value amounted to 7.3 s and the “extension of the maximum running time, significance” value was “no significant extension”.

Take `COc1c(O)c(C)c(C/C=C(\C)CC/C=C(\C)CC/C=C(\C)CC/C=C(\C)CC/C=C(\C)CC/C=C(\C)CC/C=C(\C)CC/C=C(\C)CC/C=C(\C)CCC=C(C)C)c(O)c1OC` [Reduced coenzyme Q10, reduced coenzyme Q10]: the “extension of the maximum running time (after the sample administration relative to before the administration), Average” value was found to be 17.5 s and the “extension of the maximum running time, significance” value is “no significant extension”.
